Assay results reported in ChEMBL document CHEMBL1154056, “Synthesis, characterization, antimicrobial and antitumor screening of some diorganotin(IV) complexes of 2-[(9H-Purin-6-ylimino)]-phenol” (Eur J Med Chem, 2009).
≈ marks a conversion by molar mass, not a printed value.

Assays:
Escherichia coli [1] = test: Antibacterial activity against Escherichia coli at 2 mg by agar well diffusion assay relative to imipenem; type: functional
Bacillus subtilis [2] = test: Antibacterial activity against Bacillus subtilis; type: functional
Aspergillus flavus [3] = test: Antifungal activity against Aspergillus flavus assessed as growth inhibition at 50 mg after 72 hrs by dilution plate method; type: functional
Pseudomonas aeruginosa = test: Antibacterial activity against Pseudomonas aeruginosa; type: functional
Escherichia coli [4] = test: Antibacterial activity against Escherichia coli; type: functional
Salmonella typhi [5] = test: Antibacterial activity against Salmonella typhi at 2 mg by agar well diffusion assay relative to imipenem; type: functional, Salmonella enterica subsp. enterica serovar Typhi
Salmonella typhi [6] = test: Antibacterial activity against Salmonella typhi; type: functional, Salmonella enterica subsp. enterica serovar Typhi; conditions: Salmonella enterica
Aspergillus flavus [7] = test: Antifungal activity against Aspergillus flavus at 50 mg after 72 hrs by dilution plate method; type: functional; conditions: read-out: IZ
Aspergillus niger = test: Antifungal activity against Aspergillus niger assessed as growth inhibition at 50 mg after 72 hrs dilution plate method; type: functional
Staphylococcus aureus = test: Antibacterial activity against Staphylococcus aureus; type: functional
Bacillus subtilis [8] = test: Antibacterial activity against Bacillus subtilis at 2 mg by agar well diffusion assay relative to imipenem; type: functional
Fusarium oxysporum = test: Antifungal activity against Fusarium oxysporum assessed as growth inhibition at 50 mg after 72 hrs by dilution plate method; type: functional

Question: With OC1=CC=CC/C1=N\c1ncnc2[nH]cnc12 as the molecule, how does the “inhibition (INH)” value (Escherichia coli [1]) read?
Answer: 10%

Question: What about the MIC (Bacillus subtilis [2]) of the same molecule?
Answer: 128 µg/mL (≈ 563 µM)

Question: What about the “inhibition (INH)” value (Aspergillus flavus [3]) of the same molecule?
Answer: 10%

Question: And the MIC (Pseudomonas aeruginosa)?
Answer: 64 µg/mL (≈ 282 µM)

Question: And the MIC (Escherichia coli [4])?
Answer: 64 µg/mL (≈ 282 µM)

Question: And the “inhibition (INH)” value (Salmonella typhi [5])?
Answer: 10%

Question: And the MIC (Salmonella typhi [6])?
Answer: 64 µg/mL (≈ 282 µM)

Question: And the zone of inhibition at 50000 µg/disc (Aspergillus flavus [7])?
Answer: 8 mm

Question: What about the “inhibition (INH)” value (Aspergillus niger) of the same molecule?
Answer: 8%

Question: What about the MIC (Staphylococcus aureus) of the same molecule?
Answer: 128 µg/mL (≈ 563 µM)

Question: And the “inhibition (INH)” value (Bacillus subtilis [8])?
Answer: 30%

Question: And the “inhibition (INH)” value (Fusarium oxysporum)?
Answer: 12%
